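Following 48 hours of exposure in 96-well plates, responses at five concentrations were used to interpolate endpoints linearly. GI50: concentration for 50% inhibition of growth. TGI is the concentration that stops growth completely.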
Experiments:
Experiment in all cases: DTP human tumour cell line panel, 48 h
[1] = system: CAKI-1 renal
[2] = system: ACHN renal
[3] = system: MOLT-4 leukemia
[4] = system: SK-MEL-28 melanoma
[5] = system: DU-145 prostate
[6] = system: HCT-116 colon
[7] = system: RPMI-8226 leukemia
[8] = system: UACC-62 melanoma
[9] = system: K-562 leukemia
[10] = system: SW-620 colon
[11] = system: SR leukemia
[12] = system: KM12 colon
[13] = system: 786-0 renal
[14] = system: LOX IMVI melanoma
[15] = system: SNB-19 CNS
[16] = system: HCT-15 colon
[17] = system: OVCAR-3 ovarian
[18] = system: HT29 colon
[19] = system: SN12C renal
[20] = system: NCI-H226 lung
[21] = system: COLO 205 colon
[22] = system: BT-549 breast
[23] = system: CCRF-CEM leukemia
[24] = system: HOP-92 NSCLC
[25] = system: SK-OV-3 ovarian
[26] = system: OVCAR-4 ovarian
[27] = system: A498 renal

COc1cc(C2=NNC(c3ccc(N(C)C)cc3)C2)cc(OC)c1OC (centres undefined)
GI50 [1]: 2680 nM | TGI [1]: > 100 µM | GI50 [2]: 11.3 µM | TGI [2]: > 100 µM | GI50 [3]: 2810 nM | TGI [3]: 11.4 µM | GI50 [4]: 15.6 µM | TGI [4]: > 100 µM | GI50 [5]: 1880 nM | TGI [5]: 5.41 µM | GI50 [6]: 2030 nM | TGI [6]: 19.7 µM | GI50 [7]: 1710 nM | TGI [7]: 11.7 µM | GI50 [8]: 4.37 µM | TGI [8]: > 100 µM | GI50 [9]: 406 nM | TGI [9]: 74.5 µM | GI50 [10]: 450 nM | TGI [10]: > 100 µM | GI50 [11]: 250 nM | TGI [11]: 8.06 µM | GI50 [12]: 525 nM | TGI [12]: 12.4 µM | GI50 [13]: 1930 nM | TGI [13]: > 100 µM | GI50 [14]: 7.18 µM | TGI [14]: > 100 µM | GI50 [15]: 1820 nM | TGI [15]: > 100 µM | GI50 [16]: 2480 nM | TGI [16]: > 100 µM | GI50 [17]: 6.07 µM | TGI [17]: > 100 µM | GI50 [18]: 667 nM | TGI [18]: > 100 µM | GI50 [19]: 4.63 µM | TGI [19]: > 100 µM | GI50 [20]: 54.7 µM | TGI [20]: > 100 µM | GI50 [21]: 2390 nM | TGI [21]: 12.5 µM | GI50 [22]: 811 nM | TGI [22]: 10.3 µM | GI50 [23]: 1620 nM | TGI [23]: 6.22 µM | GI50 [24]: 3.77 µM | TGI [24]: > 100 µM | GI50 [25]: 4.22 µM | TGI [25]: > 100 µM | GI50 [26]: 16.9 µM | TGI [26]: > 100 µM | GI50 [27]: 2870 nM | TGI [27]: 8.84 µM
